The results in this text go back to US8362075B2, “Cyclohexyl sulphones for treatment of cancer” (Merck Sharp & Dohme Corp., priority 2005, dated 2013).

In the test the test system is Cells expressing Notch (ALL-SIL, DND-41, HPB-ALL or TALL-1). In words: Assay for Cell Cycle Arrest (propidium iodide, FACS). It counts as cell-based. Particulars: concentrations up to 10 μM, incubation typically 4-8 days. Here is the method: Assay for Cell Cycle Arrest Cells expressing Notch (ALL-SIL, DND-41, HPB-ALL or TALL-1) (Weng et al, Science, 306 (2004), 269-71) were incubated in the presence or absence of a compound of the instant invention (e.g. the compound of Example 39 below) at concentrations up to 10 μM. At the end of the incubation (typically 4-8 days), the cells were collected, fixed in 70% ethanol on ice for >2 hours, washed, then labelled for 15 min at 37° C. with propidium iodide (0.2 mg/ml) (PI) in the presence of 0.1% Triton X100 and 0.2 mg/ml RNase and subjected to FACS analysis. […] Assay for Apoptosis

SMILES strings stand for the structures.

Take `O=C(O)CC[C@H]1CC[C@@](c2cc(F)ccc2F)(S(=O)(=O)c2ccc(Cl)cc2)CC1` [Example 39, cis-4-[(4-chlorophenyl)sulfonyl]-4-(2,5-difluorophenyl)cyclohexanepropanoic acid]: the “cell cycle populations versus untreated controls” value is “severe loss of G2- and S-phase populations, consistent with G0/G1 arrest”.
